# Test results reported in patent EP1101492A1, “NOVEL REMEDIES FOR ALLERGIC DISEASES” (FUJI YAKUHIN KOGYO KABUSHIKI KAISHA, priority 1998, dated 2000).
# How the values were obtained:
# [1] = tested on: mouse experimental atopic dermatitis models; assay: Auricle edema in experimental atopic dermatitis model (anti-DNP IgE sensitization, DNFB elicitation); assay type: in vivo, Balb/c mice; conditions: test compounds 60 mg/kg s.c., prednisolone 10 mg/kg i.p.; for % Inhibition IPR: auricle edema 1 hour post-elicitation; for % Inhibition IPR / % Inhibition LPR: once a day, 24 & 2 hours prior to DNFB-elicitation, vs untreated group; for % Inhibition LPR: auricle edema Day 1 post-elicitation; for % Inhibition vLPR: auricle edema Day 7 post-elicitation
# Experimental: Intravenous injection of an anti-2,4-dinitrophenol (DNP) antibody (anti-DNP Ab, monoclonal IgE Ab; its antibody titer was 1 : 512 to 1 : 1024 by a rat heterologous passive cutaneous anaphylaxis reaction using a Wister rat) into a tail vein of female Balb/c mice (7-week old, body weight: 17 to 20 g, purchased from JAPAN SLC, Inc.) at a dose of […] per animal raised passive sensitization. Twenty four hours post-sensitization, 0.1% 2,4-dinitrofluorobenzene (DNFB; Nacalai Tesque, Inc.) in ethanol was painted onto both sides of a pair of mouse auricles at a dose of 10µL per each side for elicitation.
# Fresh unsensitized mice were painted with 0.1% DNFB in ethanol onto their ear in the same manner as aforementioned and served as a control group. Not only immediately prior to elicitation but also 1 hour, 5 hours, daily between Days 1 and 14, and on Day 16 post-elicitation, ear thickness was measured using a dial thickness gauge (Peacock Co.). Each degree of auricle edemas was calculated: Auricular Edema (µm)=(Ear Thickness Post-Elicitation, µm) - (Ear Thickness immediately prior to Elicitation, µm) [formula]
# Balb/c mice were passively sensitized with anti-DNP IgE Ab in the same manner as in Example 1. Twenty four hours later, 0.1% DNFB in ethanol was painted onto both sides of a pair of mouse auricles at a dose of 10 µL per each side for elicitation.
# Immediately prior to elicitation, 1 hour and on Day 1 post-elicitation, auricle thickness was measured in the same manner as in Example 1. Each therapeutic efficacy is recorded as a percent inhibition wherein the "auricle edema (untreated group)" is used as a control. Auricle Edema Inhibition (%) = [ 1 -(Auricle Edema (Treated Group))/(Auricle Edema (Untreated Group))] × 100 (%) [formula]
# Immediately prior to elicitation, and on Day 7 post-elicitation, auricle thickness was similarly measured. Each therapeutic efficacy is recorded as a percent inhibition wherein the auricle edema in the untreated group is used as a control.
# Immediately prior to elicitation, and on Day 7 post-elicitation, auricle thickness was similarly measured. Each therapeutic efficacy is recorded as a percent inhibition wherein the auricle edema (untreated group) is used as a control.
# Immediately prior to elicitation, at 1 and 4 hours and on Days 1, 3 and 7 post-elicitation, auricle thickness was similarly measured. From each auricle edema (µm) based on the auricle thickness immediately prior to elicitation, especially a prophylactically therapeutic efficacy of the test compound was evaluated.
# Immediately prior to elicitation, at 0.5, 1 and 4 hours and on Days 1, 3 and 7 post-elicitation, auricle thickness was similarly measured. Each amount of auricle edemas was calculated (average± standard deviation).
# [2] = tested on: guinea pig experimental bronchial asthma models; assay: Experimental bronchial asthma model (ovalbumin inhalation): airway resistance and asthmatic death;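 for all read-outs here: female Std:Hartley guinea pigs sensitized by inhaling nebulized ovalbumin once daily for 8 consecutive days, 8 to 11 animals per group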; conditions: test compounds 15 mg/kg s.c. (Compound No. 114: 30 mg/kg), prednisolone 10 mg/kg orally; for % Survival: asthmatic death within several minutes after elicitation, water for injection 54.5, 0.5% methyl cellulose 66.7; for % Amelioration in Airway Resistance, 1 Hour after Elicitation / % Amelioration in Airway Resistance, 6 Hours after Elicitation / % Amelioration in Airway Resistance, Immediately after Elicitation: 24 and 2 hours prior to elicitation, vs solvent control
# Experimental: Guinea pigs (female, Std:Hartley, 3 weeks old, 200 to 250 g) were individually housed in a plastic chamber (width, 200 mm; depth, 300 mm; height, 167 mm). Aqueous ovalbumin (10 mg/mL) was administered to the guinea pigs once a day for sensitization by 10 min. inhalation with a nebulizer (5B, Nippon Shoji K.K.: flow rate, 6 L/min.) at a dose of 10 mg/mL during 8 cosecutive days. On Day 7 after the final sensitization, the guinea pigs were housed in a plastic chamber and inhaled using a nebulizer with a solution of ovalbumin (10 mg/mL) in physiological saline for 1 min. for elicitation (Matsumoto, T., et al., The Journal of Pharmacology and Experimental Therapeutics, 269: 1236-1244, 1994). The number of animals employed in the experiment was set to the extent there are at least 6 as individuals escaping asthmatic death. A solution of a test compound (Compound No. 130, 15 mg/kg) in water for injection was administered subcutaneously twice, i.e., 24 hours and 2 hours prior to elicitation. Similarly, the solvent alone was also administered to a negative control group. A suspension of prednisolone (10 mg/kg) in 0.5% aqueous methyl cellulose was administered orally twice, i.e., 24 hours and 2 hours prior to elicitation. Similarly, the solvent alone was also administered to another control group.
# The evaluation for efficacies was conducted in terms of airway resistance. For this purpose, an apparatus dedicated to the measurement of airway resistance (K.K. Medical Agent) was employed. Measurement includes setting a guinea pig in a test chamber under a not-anesthetized condition, applying sinusoidal pressure waves of 30 Hz components to a part below the neck of the animal from the back side of the chamber, measuring respiratory waves of 30 Hz components leaking through the mouth (volume of 30 Hz air flow passing through the respiratory tract) in front of the neck, and calculating airway resistance mechanically. Measurement was carried out immediately prior to the first drug treatment (24 hours before elicitation), just prior to elicitation, 10 minutes, 1, 2, 4, 6, and 8 hours post-elicitation.
# It was visually observed by a person carrying out said test in terms, of the appearance of cyanosis or suffocative death (asthmatic death) due to respiratory obstruction.
# Guinea pigs were sensitized with ovalbumin and asthma was induced on Day 7 after final sensitization in the same manner as in Example 20. The number of animals employed in the experiment was set to the extent there are at least 6 as individuals escaping asthmatic death (8 to 11 animals/group). In the same manner as in Example 20, the animals were measured for airway resistance mechanically and each percent change (%) in airway resistance was calculated (each value just prior to elicitation was set as 100%). Each percent amelioration in airway resistance was calculated from the percent changes in airway resistance according to the following formula: Amelioration in Airway Resistance (%) = 1 -[((Percent Change in Airway Resistance after Drug-Administration) - (Value just prior to Challenge (100)))/((Percent Change in Airway Resistance after Solvent-Administration) - (Value just prior to Challenge (100)))]× 100 [formula]
# Body weight gain in mice = conditions: test compounds 60 mg/kg s.c., prednisolone 10 mg/kg i.p., once a day for 6 days (Days 0-5), average ± standard deviation; for Body Weight Gain, Observation Day 5: non-administered 0.50± 0.23; for Body Weight Gain, Observation Day 7: non-administered 0.80± 0.48; for Body Weight Gain, Observation Day 10: non-administered 1.07± 0.58
# Experimental: Accordingly, for assessing the side-effect each of the following test compounds an action on body weight gains was examined.
# Next the mice were measured for their body weight. Each body weight gain was calculated on Days 5, 7 and 10 post-administration based on the body weight just prior to administration.
# [3] = daily from 3 to 6 days after DNFB-elicitation
# [4] = daily from 1 day prior to through 5 days after DNFB-elicitation
smiles,measurement,setting,value
"CC(=O)O.CC(C)C[C@H](C(=O)NO)[C@@H](CC(C)C)C(=O)N[C@@H](Cc1ccc(CN)cc1)C(=O)NCCC(=O)O [Compound No. 127, N-[4-(N-Hydroxyamino)-2(R),3(S)-diisobutylsuccinyl]-L-4'-aminomethylphenylalaninyl-β-alanine · 1 acetate]",% Inhibition IPR,[1],47.8%
same,% Inhibition LPR,[1],41.1%
same,% Inhibition vLPR,[1]; [3],20.6%
same,% Inhibition vLPR,[1]; [4],46.7%
same,% Survival,[2],70.0%
same,"% Amelioration in Airway Resistance, 1 Hour after Elicitation",[2],20.8%
same,"% Amelioration in Airway Resistance, 6 Hours after Elicitation",[2],55.2%
same,"% Amelioration in Airway Resistance, Immediately after Elicitation",[2],21.9%
"CC(=O)O.CNC(=O)[C@H](Cc1ccc(CNC(C)=N)cc1)NC(=O)[C@H](CC(C)C)[C@H](CCCc1ccccc1)C(=O)NO [Compound No. 126, N-[4-(N-Hydroxyamino)-2(R)-isobutyl-3(S)-(3-phenyltrimethylene)succinyl]-L-4'-acetimidoyliminomethylenephenyl alanine-N-methylamide · 1 acetate]",% Inhibition IPR,[1],38.2%
same,% Inhibition LPR,[1],39.2%
same,% Inhibition vLPR,[1]; [3],44.7%
"CC(=N)NCc1ccc(CC(NC(=O)C(CC(C)C)C(CC(C)C)C(=O)NO)C(=O)NCCO)cc1 (racemic) [Compound No. 91, N^a-[4-(Hydroxyamino)-2(R),3(RS)-diisobutylsuccinyl]-4'-acetimidoyliminomethyl-L-phenylalanine N-(2-hydroxyethyl)amide · 2 acetate]",% Inhibition LPR,[1],43.0%
same,"Body Weight Gain, Observation Day 5",Body weight gain in mice,1.28± 0.37
same,"Body Weight Gain, Observation Day 7",Body weight gain in mice,1.55± 0.48
same,"Body Weight Gain, Observation Day 10",Body weight gain in mice,1.30± 0.54
"CNC(=O)C(CCCNC(=N)N)NC(=O)C(CC(C)C)C(Cc1ccc(CN2C(=O)c3ccccc3C2=O)cc1)C(=O)NO (single isomer, unassigned) [Compound No. 51, N^a-[4-(Hydroxyamino)-2(R)-isobutyl-3(R or S)-(p-phthalimidomethylbenzyl)succinyl]-L-arginine N-methylamide · 1 acetate]",% Survival,[2],70.0%
same,"% Amelioration in Airway Resistance, 1 Hour after Elicitation",[2],59.1%
same,"% Amelioration in Airway Resistance, 6 Hours after Elicitation",[2],56.3%
same,"% Amelioration in Airway Resistance, Immediately after Elicitation",[2],30.1%
"CNC(=O)[C@H](CCCCN)NC(=O)[C@H](CC(C)C)C(CCCc1ccc(C(=O)OC)cc1)C(=O)NO (single isomer, unassigned) [Compound No. 65, N^a-[4-(Hydroxyamino)-2(R)-isobutyl-3(R or S)-[3-(p-methoxycarbonylphenyl)propyl]succinyl]-L-lysine N-methylamide · 1 acetate]",% Survival,[2],87.5%
same,"% Amelioration in Airway Resistance, 1 Hour after Elicitation",[2],22.3%
same,"% Amelioration in Airway Resistance, 6 Hours after Elicitation",[2],63.6%
same,"% Amelioration in Airway Resistance, Immediately after Elicitation",[2],29.9%
"CC(=O)O.CNC(=O)[C@H](Cc1ccc(CNC(C)=N)cc1)NC(=O)[C@H](CC(C)C)[C@H](O)C(=O)NO [Compound No. 43, N^a-[4-(Hydroxyamino)-2(R)-isobutyl-3(S)-hydroxysuccinyl]-4'-acetimidoyliminomethyl-L-phenylalanine N-methylamide · 1 acetate]",% Inhibition IPR,[1],38.2%
same,% Inhibition LPR,[1],39.2%
same,% Inhibition vLPR,[1]; [3],43.6%
"CC(=O)O.CNC(=O)[C@H](Cc1ccc(NC(=N)N)cc1)NC(=O)[C@@H](CC(=O)NO)CC(C)C [Compound No. 121, N-[4-(N-Hydroxyamino)-2(R)-isobutylsuccinyl]-L-4'-guanidophenylalanine-N-methylamide 1 acetate]",% Survival,[2],88.9%
same,"% Amelioration in Airway Resistance, 1 Hour after Elicitation",[2],56.4%
same,"% Amelioration in Airway Resistance, 6 Hours after Elicitation",[2],102.2%
"CC(=N)N=Cc1ccc(C[C@H](NC(=O)[C@H](CC(C)C)C(CC(C)C)C(=O)NO)C(=O)NCCN(C)C)cc1.CC(=O)O.CC(=O)O (single isomer, unassigned) [Compound No. 90, N^a-[4-(Hydroxyamino)-2(R),3(R or S)-diisobutylsuccinyl]-4'-acetimidoyliminomethyl-L-phenylalanine N-(2-N',N'-dimethylaminoethyl)amide · 2 acetate]",% Inhibition vLPR,[1]; [4],20.6%
"CNC(=O)C(CCCCNC(C)=N)NC(=O)C(CC(C)C)C(C)C(=O)NO (racemic) [Compound No. 22, N^a-[4-(Hydroxyamino)-2(R)-isobutyl-3(RS)-methylsuccinyl]-N^e-acetimidoyl-L-lysine N-methylamide · 1 acetate]",% Inhibition IPR,[1],52.7%
same,% Inhibition LPR,[1],33.1%
same,% Inhibition vLPR,[1]; [3],49.5%
same,"Body Weight Gain, Observation Day 5",Body weight gain in mice,0.97± 0.31
same,"Body Weight Gain, Observation Day 7",Body weight gain in mice,0.80± 0.39
same,"Body Weight Gain, Observation Day 10",Body weight gain in mice,1.20± 0.53
"CNC(=O)C(CCCN)NC(=O)C(CC(C)C)C(CCCc1ccc(NC(=N)N)cc1)C(=O)NO (racemic) [Compound No. 46, N^a-[4-(Hydroxyamino)-2(R)-isobutyl-3(RS)-[3-(4'-guanidinophenyl)propyl]succinyl]-L-ornithine-N-methylamide · 2 acetate]",% Inhibition LPR,[1],46.7%
same,% Inhibition vLPR,[1]; [4],27.5%
same,"Body Weight Gain, Observation Day 5",Body weight gain in mice,1.08± 0.22
same,"Body Weight Gain, Observation Day 7",Body weight gain in mice,1.57± 0.33
same,"Body Weight Gain, Observation Day 10",Body weight gain in mice,1.33± 0.32
"CNC(=O)[C@H](Cc1ccc(CN)cc1)NC(=O)[C@H](CC(C)C)[C@@H](CCCc1ccccc1)C(=O)NO.Cl [Compound No. 128, N-[4-(N-Hydroxyamino)-2(R)-isobutyl-3(R)-(3-phenylpropyl)succinyl)-L-4'-aminomethylphenylalanine-N-methylamide · 1 hydrochloride]",% Survival,[2],72.7%
same,"% Amelioration in Airway Resistance, 1 Hour after Elicitation",[2],53.2%
same,"% Amelioration in Airway Resistance, 6 Hours after Elicitation",[2],49.4%
